For the experiment, the target named is T1, Human Factor XIIa (hFXIIa) (Homo sapiens, UniProt P00748).
T1 construct: purchased Enzyme Research Laboratories
T1 sequence (P00748 373-615 limits assumed): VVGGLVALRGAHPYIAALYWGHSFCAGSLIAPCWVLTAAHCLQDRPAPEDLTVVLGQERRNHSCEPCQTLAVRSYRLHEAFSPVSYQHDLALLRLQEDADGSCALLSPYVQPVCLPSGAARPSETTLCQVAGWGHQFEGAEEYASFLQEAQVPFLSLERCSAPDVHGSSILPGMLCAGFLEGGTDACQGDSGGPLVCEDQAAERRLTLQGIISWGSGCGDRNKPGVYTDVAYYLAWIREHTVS
T1 sequence (P00748 20-372 partner limits assumed): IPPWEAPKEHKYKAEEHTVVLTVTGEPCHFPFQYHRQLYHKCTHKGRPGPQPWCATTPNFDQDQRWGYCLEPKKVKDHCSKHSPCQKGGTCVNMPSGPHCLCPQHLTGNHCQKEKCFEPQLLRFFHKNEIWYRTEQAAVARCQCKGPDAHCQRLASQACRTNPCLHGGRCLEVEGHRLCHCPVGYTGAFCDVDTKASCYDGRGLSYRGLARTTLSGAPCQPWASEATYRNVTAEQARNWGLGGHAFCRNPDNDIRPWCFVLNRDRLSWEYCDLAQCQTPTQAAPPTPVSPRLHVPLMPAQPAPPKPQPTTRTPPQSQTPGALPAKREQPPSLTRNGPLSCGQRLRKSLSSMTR
The experiment can be described thus: Determination of Human Factor XIIa (hFXIIa) inhibition, fluorogenic substrate IC50 assay. The experiment is classed as biochemical. Particulars: fluorogenic substrate H-DPro-Phe-Arg-AFC at Km, 25° C., read-out: Human FXIIa IC50. The method, then: Determination of Human Factor XIIa (hFXIIa) inhibition
The Km for the cleavage of the substrate by hFXIIa was determined by standard transformation of the Michaelis-Menten equation, with subsequent inhibition assays performed at substrate Km concentration.

The record followed here is patent US20260132132A1, “3A,4,5,6-TETRAHYDRO-1 H-PYRAZOLO[3,4-C]PYRIDIN-7(7AH)-ONE DERIVATIVES AS FACTOR XIIA INHIBITORS” (KALVISTA PHARMACEUTICALS LIMITED, priority 2022, published 2026).

SMILES strings stand for the structures.

As to `CN1CCc2ccc(N3CCc4c(C(=O)NC5(C)CCOCC5)nn(-c5cccc(Cl)c5)c4C3=O)cc2C1` [Example 1064, 1-(3-chlorophenyl)-6-(2-methyl-1,2,3,4-tetrahydroisoquinolin-7-yl)-N-(4-methyltetrahydro-2H-pyran-4-yl)-7-oxo-4,5,6,7-tetrahydro-1H-pyrazolo[3,4-c]pyridine-3-carboxamide], the half-maximal inhibitory concentration (IC50) was 300 to 1000 nM. Turning to `Cc1cccnc1CNC(=O)c1nn(-c2cccc(Cl)c2)c2c1CCN(c1ccc3c(c1)CN(CCO)CC3)C2=O` [Example 1136, 1-(3-chlorophenyl)-6-(2-(2-hydroxyethyl)-1,2,3,4-tetrahydroisoquinolin-7-yl)-N-((3-methylpyridin-2-yl)methyl)-7-oxo-4,5,6,7-tetrahydro-1H-pyrazolo[3,4-c]pyridine-3-carboxamide], the concentration for half-maximal inhibition (IC50) fell in the range of 10 to 100 nM. For `O=C(NCC1CC1)c1nn(-c2cccc(Cl)c2)c2c1CCN(c1ccc3c(c1)CN(C1CCOC1)CC3)C2=O` (stereo not drawn) [Example 1115, 1-(3-chlorophenyl)-N-(cyclopropylmethyl)-7-oxo-6-(2-(tetrahydrofuran-3-yl)-1,2,3,4-tetrahydroisoquinolin-7-yl)-4,5,6,7-tetrahydro-1H-pyrazolo[3,4-c]pyridine-3-carboxamide] the value was 300 to 1000 nM.

On to `CCOC(=O)c1nn(-c2cccc(Cl)c2)c2c1CCN(c1cccc(N3CCCC3=O)c1)C2=O` [Example 1323, ethyl 1-(3-chlorophenyl)-7-oxo-6-(3-(2-oxopyrrolidin-1-yl)phenyl)-4,5,6,7-tetrahydro-1H-pyrazolo[3,4-c]pyridine-3-carboxylate], for which the IC50 was in the range of 1000 to 3000 nM. Consider `CN1CCc2ccc(N3CCc4c(C(=O)NCc5ccoc5)nn(-c5cccc(Cl)c5)c4C3=O)cc2C1` [Example 1068, 1-(3-chlorophenyl)-N-(furan-3-ylmethyl)-6-(2-methyl-1,2,3,4-tetrahydroisoquinolin-7-yl)-7-oxo-4,5,6,7-tetrahydro-1H-pyrazolo[3,4-c]pyridine-3-carboxamide], for which the IC50 was 100 to 300 nM. On to `O=C(NCC1CC1)c1nn(-c2cccc(Cl)c2)c2c1CCN(c1cccc(CN3CCCC3)c1)C2=O` [Example 1072, 1-(3-Chlorophenyl)-N-(cyclopropylmethyl)-7-oxo-6-(3-(pyrrolidin-1-ylmethyl)phenyl)-4,5,6,7-tetrahydro-1H-pyrazolo[3,4-c]pyridine-3-carboxamide], for which the half-maximal inhibitory concentration (IC50) was in the range of 1000 to 3000 nM. As to `O=C(NCc1ccccc1)c1nn(-c2cccc(Cl)c2)c2c1CCN(c1ccc3c(c1)CN(CC1CCCC1)CC3)C2=O` [Example 1020, N-benzyl-1-(3-chlorophenyl)-6-(2-(cyclopentylmethyl)-1,2,3,4-tetrahydroisoquinolin-7-yl)-7-oxo-4,5,6,7-tetrahydro-1H-pyrazolo[3,4-c]pyridine-3-carboxamide], the half-inhibitory concentration (IC50) lay within 300 to 1000 nM. For `CN(C)C(=O)c1cncc(N2CCc3c(C(=O)NCC4CC4)nn(-c4cccc(Cl)c4)c3C2=O)c1` [Example 1279, 1-(3-chlorophenyl)-N-(cyclopropylmethyl)-6-(5-(dimethylcarbamoyl)pyridin-3-yl)-7-oxo-4,5,6,7-tetrahydro-1H-pyrazolo[3,4-c]pyridine-3-carboxamide] the value was 10000 to 40000 nM; for `CN1CCc2ccc(N3CCc4c(C(=O)NC5CCNC(=O)C5)nn(-c5cccc(Cl)c5)c4C3=O)cc2C1` (stereo not drawn) [Example 1057, 1-(3-chlorophenyl)-6-(2-methyl-1,2,3,4-tetrahydroisoquinolin-7-yl)-7-oxo-N-(2-oxopiperidin-4-yl)-4,5,6,7-tetrahydro-1H-pyrazolo[3,4-c]pyridine-3-carboxamide], 300 to 1000 nM; for `Cc1cc(CNC(=O)c2nn(-c3cccc(Cl)c3)c3c2CCN(c2ccc4c(c2)N(C)C(=O)CCC4)C3=O)nn1C` [Example 1241, 1-(3-chlorophenyl)-N-((1,5-dimethyl-1H-pyrazol-3-yl)methyl)-6-(1-methyl-2-oxo-2,3,4,5-tetrahydro-1H-benzo[b]azepin-8-yl)-7-oxo-4,5,6,7-tetrahydro-1H-pyrazolo[3,4-c]pyridine-3-carboxamide], 1000 to 3000 nM.

On to `CN1CCc2ccc(N3CCc4c(C(=O)NCC56CCC(CO)(C5)O6)nn(-c5cccc(Cl)c5)c4C3=O)cc2C1=O` (stereo not drawn) [Example 1280, 1-(3-chlorophenyl)-N-((4-(hydroxymethyl)-5-oxabicyclo[2.1.1]hexan-1-yl)methyl)-6-(2-methyl-1-oxo-1,2,3,4-tetrahydroisoquinolin-7-yl)-7-oxo-4,5,6,7-tetrahydro-1H-pyrazolo[3,4-c]pyridine-3-carboxamide], for which the concentration for half-maximal inhibition (IC50) lay in the range of 300 to 1000 nM. Regarding `CN1CCc2ccc(N3CCc4c(C(=O)N5CCOCC5)nn(-c5cccc(Cl)c5)c4C3=O)cc2C1=O` [Example 1272, 7-(1-(3-chlorophenyl)-3-(morpholine-4-carbonyl)-7-oxo-1,4,5,7-tetrahydro-6H-pyrazolo[3,4-c]pyridin-6-yl)-2-methyl-3,4-dihydroisoquinolin-1(2H)-one], the half-inhibitory concentration (IC50) was 3000 to 10000 nM.

For `CN1CCc2ccc(N3CCc4c(C(=O)N[C@@H](CO)c5ccccc5)nn(-c5cccc(Cl)c5)c4C3=O)cc2C1` [Example 1063, (R)-1-(3-chlorophenyl)-N-(2-hydroxy-1-phenylethyl)-6-(2-methyl-1,2,3,4-tetrahydroisoquinolin-7-yl)-7-oxo-4,5,6,7-tetrahydro-1H-pyrazolo[3,4-c]pyridine-3-carboxamide], the half-maximal inhibitory concentration (IC50) is 100 to 300 nM. `CCOCCN1CCc2ccc(N3CCc4c(C(=O)NCC5CC5)nn(-c5cccc(Cl)c5)c4C3=O)cc2C1` [Example 1061, 1-(3-chlorophenyl)-N-(cyclopropylmethyl)-6-(2-(2-ethoxyethyl)-1,2,3,4-tetrahydroisoquinolin-7-yl)-7-oxo-4,5,6,7-tetrahydro-1H-pyrazolo[3,4-c]pyridine-3-carboxamide]: the IC50 fell in the range of 100 to 300 nM. For `CC(=O)N(C)c1cccc(N2CCc3c(C(=O)NCC4CC4)nn(-c4cccc(Cl)c4)c3C2=O)c1` [Example 1269, 1-(3-chlorophenyl)-N-(cyclopropylmethyl)-6-(3-(N-methylacetamido)phenyl)-7-oxo-4,5,6,7-tetrahydro-1H-pyrazolo[3,4-c]pyridine-3-carboxamide] the value was 10000 to 40000 nM; for `CCOC(=O)c1nn(-c2cccc(Cl)c2)c2c1CCN(c1ccc(OC)c(C(=O)N(C)C)c1)C2=O` [Example 1324, ethyl 1-(3-chlorophenyl)-6-(3-(dimethylcarbamoyl)-4-methoxyphenyl)-7-oxo-4,5,6,7-tetrahydro-1H-pyrazolo[3,4-c]pyridine-3-carboxylate], 1000 to 3000 nM; for `CCN1CCc2c(COC)cc(N3CCc4c(C(=O)NCC5CC5)nn(-c5cccc(Cl)c5)c4C3=O)cc2C1` [Example 1169, 1-(3-Chlorophenyl)-N-(cyclopropylmethyl)-6-(2-ethyl-5-(methoxymethyl)-1,2,3,4-tetrahydroisoquinolin-7-yl)-7-oxo-4,5,6,7-tetrahydro-1H-pyrazolo[3,4-c]pyridine-3-carboxamide], 100 to 300 nM.

Take `O=C(NCC1CC1)c1nn(-c2cccc(Cl)c2)c2c1CCN(c1cccc(N3CCOCC3=O)c1)C2=O` [Example 1313, 1-(3-chlorophenyl)-N-(cyclopropylmethyl)-7-oxo-6-(3-(3-oxomorpholino)phenyl)-4,5,6,7-tetrahydro-1H-pyrazolo[3,4-c]pyridine-3-carboxamide]: the half-inhibitory concentration (IC50) fell in the range of 3000 to 10000 nM.
